Entries after “also recorded” stand apart in the source; their conditions may differ.
Legend:
[1] = tested on: advanced and/or metastatic cancers; experiment: Antitumor activity; type: in vivo, human
[2] = tested on: patients with advanced solid tumors; conditions: given twice daily on a continuous schedule (every 12 h); mainly Caucasian patients; cited from earlier work
[3] = tested on: breast cancer; conditions: larger population, including MONARCH plus; cited from earlier work
[4] = Breast cancer treated population, 150 mg (n1 = 10)
[5] = Breast cancer treated population, 200 mg (n1 = 11)
[6] = Breast cancer treated population, Total (n1 = 21)
[7] = Overall population, 150 mg (n = 12)
[8] = Overall population, 200 mg (n = 13)
[9] = Overall population, Total (n = 25)

CCN1CCN(Cc2ccc(Nc3ncc(F)c(-c4cc(F)c5nc(C)n(C(C)C)c5c4)n3)nc2)CC1 [abemaciclib]
Confirmed responder ([1]; 150 mg cohort): 1 | Patients achieving PR ([1]; 1 patient in each dose cohort): 2 patients | Best overall response: Complete response (CR) [1, 4]: 0 n (%) | Best overall response: Partial response (PR) [1, 4]: 1 (10.0) n (%) | Best overall response: Progressive disease (PD) [1, 4]: 2 (20.0) n (%) | Disease control rate (CR+PR+SD) [1, 4]: 7 (70.0) n (%) | Overall response rate (CR+PR) [1, 4]: 1 (10.0) n (%) | Best overall response: Complete response (CR) [1, 5]: 0 n (%) | Best overall response: Partial response (PR) [1, 5]: 1 (9.1) n (%) | Best overall response: Progressive disease (PD) [1, 5]: 1 (9.1) n (%) | Disease control rate (CR+PR+SD) [1, 5]: 9 (81.8) n (%) | Overall response rate (CR+PR) [1, 5]: 1 (9.1) n (%) | Best overall response: Complete response (CR) [1, 6]: 0 n (%) | Best overall response: Partial response (PR) [1, 6]: 2 (9.5) n (%) | Best overall response: Progressive disease (PD) [1, 6]: 3 (14.3) n (%) | Disease control rate (CR+PR+SD) [1, 6]: 16 (76.2) n (%) | Overall response rate (CR+PR) [1, 6]: 2 (9.5) n (%) | Best overall response: Complete response (CR) [1, 7]: 0 n (%) | Best overall response: Partial response (PR) [1, 7]: 1 (8.3) n (%) | Best overall response: Progressive disease (PD) [1, 7]: 2 (16.7) n (%) | Disease control rate (CR+PR+SD) [1, 7]: 8 (66.7) n (%) | Overall response rate (CR+PR) [1, 7]: 1 (8.3) n (%) | Best overall response: Complete response (CR) [1, 8]: 0 n (%) | Best overall response: Partial response (PR) [1, 8]: 1 (7.7) n (%) | Best overall response: Progressive disease (PD) [1, 8]: 2 (15.4) n (%) | Disease control rate (CR+PR+SD) [1, 8]: 9 (69.2) n (%) | Overall response rate (CR+PR) [1, 8]: 1 (7.7) n (%) | Best overall response: Complete response (CR) [1, 9]: 0 n (%) | Best overall response: Partial response (PR) [1, 9]: 2 (8.0) n (%) | Best overall response: Progressive disease (PD) [1, 9]: 4 (16.0) n (%) | Disease control rate (CR+PR+SD) [1, 9]: 17 (68.0) n (%) | Overall response rate (CR+PR) [1, 9]: 2 (8.0) n (%) | Complete response (CR) ([1]; all treated patients (n = 25)): No complete response was observed; also recorded: no CR was observed | Disease control rate (DCR) ([1]; all treated patients (n = 25)): 68% | Patients achieving partial response (PR) ([1]; all treated patients (n = 25)): 8% | Maximum tolerated dose (MTD) [2]: 200 mg | Incidence of embolism [3]: less than 5%
